Measurements taken from EPA's ToxValDB 9.5.
Several values for one entry are separate records, joined by “and”; a condition that tells them apart may be missing. Identical values can stand only once.

How the values were obtained:
Oryctolagus sp. = conditions: developmental; oral; gavage; Prominent liver lobulation
Rattus norvegicus [1] = conditions: oral
Rattus norvegicus [2] = experiment: LD5; higher = less toxic; conditions: developmental, oral, drinking water, M/F, Wistar
Cavia porcellus [3] = conditions: uterotrophic; duration: 12 days; injection; subcutaneous; Guinea Pig; Active
Dog, Mouse, Rat = conditions: oral; Effects on the reproductive system and developing nervous system
Mus musculus [4] = conditions: oral
Mus musculus [5] = conditions: developmental; oral; diet; M/F; Swiss-Webster; Nervous
Bacteria = conditions: In vitro / microbiological; Growth inhibition
Cavia porcellus [6] = conditions: chronic; oral; M/F; Guinea Pig; increased relative liver weight
Rattus norvegicus [7] = conditions: developmental, oral, gavage, M, Wistar, generation: F1
Mus musculus [8] = conditions: repeat dose other; oral
Chalcophaps sp. = conditions: oral
Rattus norvegicus [9] = conditions: Hershberger, duration: 10 days, oral, gavage, active + Antiandrogenic + anti-androgenic + significant increase in liver wt at 100 and greater / significant decrease in AST and increase …
Rattus norvegicus [10] = conditions: developmental, M/F, Wistar, developmental
Cavia porcellus [11] = conditions: subchronic; duration: 90 days; oral; M/F; Guinea Pig; ototoxicity

## Cc1cc(C)[nH]c(=O)n1.O=C(Nc1ccc([N+](=O)[O-])cc1)Nc1ccc([N+](=O)[O-])cc1 [1,3-Bis(4-nitrophenyl)urea 4,6-dimethylpyrimidin-2-ol (1:1)]
Oryctolagus sp.
  NOAEL: 60 mg/kg-day
Rattus norvegicus [1]; reproduction developmental, gavage, M/F, CD/CRJ, Maternal mortality & decreased bodyweight gain & feed consumption / decreased bodyweight & various malformations in offspring
  NOEL: 200 mg/kg-day

## CCC(C)O (centres undefined) [2-Butanol]
Rattus norvegicus [2]
  LD5: 657 mg/kg-day

## CC/C(=C(\c1ccc(O)cc1)c1ccc(OCCN(C)C)cc1)c1ccccc1 [4-Hydroxytamoxifen]
Cavia porcellus [3]
  LEL: 0.1 mg/day

## [Al] [Aluminum]
Dog, Mouse, Rat
  LOEL: 50 mg/kg-day and 75 mg/kg-day
Rattus norvegicus [1]; developmental, drinking water, Renal damage (hydronephrosis, urethral dilatation, obstruction and/or presence of calculi) and reduced grip strength, but not cognitive …
  NOAEL: 30 mg/kg-day
Mus musculus [4]; chronic, duration: 24 months, diet, M/F, Swiss-Webster, neurological
  LOAEL: 100 mg/kg-day
Mus musculus [4]; developmental, duration: 364 days, diet, M/F, Swiss-Webster, neurological
  NOAEL: 26 mg/kg-day
Mus musculus [5]
  LOAEL (mg Al/kg-day): 100

## CN[C@@H]1[C@@H](O[C@H]2O[C@H](CO)[C@@H](N)[C@H](O)[C@H]2O)O[C@H]2C[C@@H](N)[C@@H](O[C@H]3[C@H](O)[C@@H](O)[C@H](N)C[C@@H]3N)O[C@@H]2[C@@H]1O [Apramycin]
Bacteria
  NOAEC: 8.3 µg/mL

## CCCCC(CC)COC(=O)c1ccccc1C(=O)OCC(CC)CCCC (centres undefined) [Di(2-ethylhexyl) phthalate]
Cavia porcellus [6]
  LOAEL: 19 mg/kg-day
Rattus norvegicus [7]; F1: AGD (mm)
  LOEL: 405 mg/kg-day
  NOEL: 135 mg/kg-day
Rattus norvegicus [7]; F1: Hypospadias (% litters affected) + F1: Hypospadias (litters affected incidence)
  NOEL: 405 mg/kg-day
Mus musculus [8]
  LOAEL: 183 mg/kg-day
  NOAEL: 18.3 mg/kg-day
Chalcophaps sp.
  NOAEL: 1.1 mg/kg-day
Rattus norvegicus [9]; Sprague-Dawley
  LOEL: 300 mg/kg-day and 100 mg/kg-day
Rattus norvegicus [9]; Wistar
  LOEL: 300 mg/kg-day and 200 mg/kg-day
  NOEL: 100 mg/kg-day
Mus musculus [4]; developmental, duration: 20 days, gavage, F, CD1, developmental
  LOAEL: 0.04 mg/kg-day
Rattus norvegicus [10]; duration: 9 weeks, inhalation, whole body
  LOAEL: 4.79 mg/m3
Rattus norvegicus [10]; duration: 12 days, oral, gavage
  LOAEL: 1 mg/kg-day

## NC[C@@H]1O[C@H](O[C@H]2[C@@H](O)[C@H](O[C@@H]3[C@@H](O)[C@H](N)C[C@H](N)[C@H]3O[C@H]3O[C@H](CN)[C@@H](O)[C@H](O)[C@H]3N)O[C@@H]2CO)[C@H](N)[C@@H](O)[C@@H]1O [Neomycin]
Cavia porcellus [11]
  NOEL: 6 mg/kg-day
